Experimental data as given in PubChem BioAssay (NCI).
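1) Cells in 96-well plates. 2) Compound, 48 h, 5 concentrations. 3) Linear interpolation between surrounding doses. 4) Unreached endpoint = highest concentration. The concentration for 50% growth inhibition is given as GI50. TGI marks complete inhibition of growth.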

Columns and labels:
Experiment in all cases: inhibition of tumour cell growth, NCI panel, 48 h
786-0 renal = test system: 786-0 renal
A498 renal = test system: A498 renal
A549 NSCLC = test system: A549 NSCLC
ACHN renal = test system: ACHN renal
BT-549 breast = test system: BT-549 breast
CAKI-1 renal = test system: CAKI-1 renal
CCRF-CEM leukemia = test system: CCRF-CEM leukemia
COLO 205 colon = test system: COLO 205 colon
DU-145 prostate = test system: DU-145 prostate
HCC-2998 colon = test system: HCC-2998 colon
HCT-116 colon = test system: HCT-116 colon
HCT-15 colon = test system: HCT-15 colon
HL-60(TB) leukemia = test system: HL-60(TB) leukemia
HOP-62 NSCLC = test system: HOP-62 NSCLC
HOP-92 NSCLC = test system: HOP-92 NSCLC
HS 578T breast = test system: HS 578T breast
HT29 colon = test system: HT29 colon
IGROV1 ovarian = test system: IGROV1 ovarian
K-562 leukemia = test system: K-562 leukemia
KM12 colon = test system: KM12 colon
LOX IMVI melanoma = test system: LOX IMVI melanoma
M14 melanoma = test system: M14 melanoma
MALME-3M melanoma = test system: MALME-3M melanoma
MCF7 breast = test system: MCF7 breast
MDA-MB-231 breast = test system: MDA-MB-231 breast
MDA-MB-435 = test system: MDA-MB-435
MOLT-4 leukemia = test system: MOLT-4 leukemia
NCI-H226 lung = test system: NCI-H226 lung
NCI-H23 lung = test system: NCI-H23 lung
NCI-H460 lung = test system: NCI-H460 lung
NCI-H522 lung = test system: NCI-H522 lung
NCI/ADR-RES ovarian = test system: NCI/ADR-RES ovarian
OVCAR-3 ovarian = test system: OVCAR-3 ovarian
OVCAR-4 ovarian = test system: OVCAR-4 ovarian
OVCAR-5 ovarian = test system: OVCAR-5 ovarian
OVCAR-8 ovarian = test system: OVCAR-8 ovarian
RPMI-8226 leukemia = test system: RPMI-8226 leukemia
RXF 393 renal = test system: RXF 393 renal
SF-268 CNS = test system: SF-268 CNS
SF-295 CNS = test system: SF-295 CNS
SF-539 CNS = test system: SF-539 CNS
SK-MEL-28 melanoma = test system: SK-MEL-28 melanoma
SK-MEL-5 melanoma = test system: SK-MEL-5 melanoma
SK-OV-3 ovarian = test system: SK-OV-3 ovarian
SN12C renal = test system: SN12C renal
SNB-19 CNS = test system: SNB-19 CNS
SNB-75 CNS = test system: SNB-75 CNS
SR leukemia = test system: SR leukemia
SW-620 colon = test system: SW-620 colon
T-47D breast = test system: T-47D breast
TK-10 renal = test system: TK-10 renal
U251 CNS = test system: U251 CNS
UACC-257 melanoma = test system: UACC-257 melanoma
UACC-62 melanoma = test system: UACC-62 melanoma
UO-31 renal = test system: UO-31 renal
PC-3 prostate = test system: PC-3 prostate
SK-MEL-2 melanoma = test system: SK-MEL-2 melanoma

CN1CCc2c(c3ccccc3c3ccccc23)C1
GI50 (786-0 renal): 6.23 µM
TGI (786-0 renal): 21.3 µM
GI50 (A498 renal): 1.81 µM
TGI (A498 renal): 7.41 µM
GI50 (A549 NSCLC): 3.25 µM
TGI (A549 NSCLC): 18.5 µM
GI50 (ACHN renal): 3.6 µM
TGI (ACHN renal): 14.5 µM
GI50 (BT-549 breast): 12.4 µM
TGI (BT-549 breast): 29 µM
GI50 (CAKI-1 renal): 4.12 µM
TGI (CAKI-1 renal): 18.5 µM
GI50 (CCRF-CEM leukemia): 4.62 µM
TGI (CCRF-CEM leukemia): 21.5 µM
GI50 (COLO 205 colon): 3.32 µM
TGI (COLO 205 colon): 11.1 µM
GI50 (DU-145 prostate): 5.28 µM
TGI (DU-145 prostate): 20.5 µM
GI50 (HCC-2998 colon): 5.81 µM
TGI (HCC-2998 colon): 20.2 µM
GI50 (HCT-116 colon): 3.93 µM
TGI (HCT-116 colon): 13.5 µM
GI50 (HCT-15 colon): 4.43 µM
TGI (HCT-15 colon): 51.9 µM
GI50 (HL-60(TB) leukemia): 3.32 µM
TGI (HL-60(TB) leukemia): 10.2 µM
GI50 (HOP-62 NSCLC): 7.11 µM
TGI (HOP-62 NSCLC): 26.1 µM
GI50 (HOP-92 NSCLC): 3.31 µM
TGI (HOP-92 NSCLC): 16.7 µM
GI50 (HS 578T breast): 3.29 µM
TGI (HS 578T breast): 17.8 µM
GI50 (HT29 colon): 4.23 µM
TGI (HT29 colon): 16.8 µM
GI50 (IGROV1 ovarian): 4.45 µM
TGI (IGROV1 ovarian): 16.3 µM
GI50 (K-562 leukemia): 3.59 µM
TGI (K-562 leukemia): 14.6 µM
GI50 (KM12 colon): 4.91 µM
TGI (KM12 colon): 16.8 µM
GI50 (LOX IMVI melanoma): 3.17 µM
TGI (LOX IMVI melanoma): 11.2 µM
GI50 (M14 melanoma): 4.34 µM
TGI (M14 melanoma): 16.7 µM
GI50 (MALME-3M melanoma): 3.34 µM
TGI (MALME-3M melanoma): 11.6 µM
GI50 (MCF7 breast): 3.63 µM
TGI (MCF7 breast): 13.6 µM
GI50 (MDA-MB-231 breast): 8.62 µM
TGI (MDA-MB-231 breast): 32.2 µM
GI50 (MDA-MB-435): 4.47 µM
TGI (MDA-MB-435): 17.3 µM
GI50 (MOLT-4 leukemia): 3.78 µM
TGI (MOLT-4 leukemia): 19.9 µM
GI50 (NCI-H226 lung): 3.77 µM
TGI (NCI-H226 lung): 29.3 µM
GI50 (NCI-H23 lung): 5.24 µM
TGI (NCI-H23 lung): 21.7 µM
GI50 (NCI-H460 lung): 3.67 µM
TGI (NCI-H460 lung): 13.6 µM
GI50 (NCI-H522 lung): 2.76 µM
TGI (NCI-H522 lung): 8.49 µM
GI50 (NCI/ADR-RES ovarian): 4.58 µM
TGI (NCI/ADR-RES ovarian): 25.3 µM
GI50 (OVCAR-3 ovarian): 9.92 µM
TGI (OVCAR-3 ovarian): 25.6 µM
GI50 (OVCAR-4 ovarian): 10.3 µM
TGI (OVCAR-4 ovarian): 40.2 µM
GI50 (OVCAR-5 ovarian): 10.9 µM
TGI (OVCAR-5 ovarian): 38.1 µM
GI50 (OVCAR-8 ovarian): 4.46 µM
TGI (OVCAR-8 ovarian): 43.2 µM
GI50 (RPMI-8226 leukemia): 3.66 µM
TGI (RPMI-8226 leukemia): 12.7 µM
GI50 (RXF 393 renal): 4.18 µM
TGI (RXF 393 renal): 17.1 µM
GI50 (SF-268 CNS): 6.46 µM
TGI (SF-268 CNS): 28 µM
GI50 (SF-295 CNS): 5.37 µM
TGI (SF-295 CNS): 33.6 µM
GI50 (SF-539 CNS): 5.1 µM
TGI (SF-539 CNS): 18.1 µM
GI50 (SK-MEL-28 melanoma): 4.75 µM
TGI (SK-MEL-28 melanoma): 18.9 µM
GI50 (SK-MEL-5 melanoma): 2.97 µM
TGI (SK-MEL-5 melanoma): 11.4 µM
GI50 (SK-OV-3 ovarian): 8.86 µM
TGI (SK-OV-3 ovarian): 44.2 µM
GI50 (SN12C renal): 3.74 µM
TGI (SN12C renal): 27.6 µM
GI50 (SNB-19 CNS): 4.38 µM
TGI (SNB-19 CNS): 39.1 µM
GI50 (SNB-75 CNS): 6.14 µM
TGI (SNB-75 CNS): 19.9 µM
GI50 (SR leukemia): 3.44 µM
TGI (SR leukemia): 15.6 µM
GI50 (SW-620 colon): 3.59 µM
TGI (SW-620 colon): 15.3 µM
GI50 (T-47D breast): 5.68 µM
TGI (T-47D breast): 26.7 µM
GI50 (TK-10 renal): 4.27 µM
TGI (TK-10 renal): 15.4 µM
GI50 (U251 CNS): 3.85 µM
TGI (U251 CNS): 16.2 µM
GI50 (UACC-257 melanoma): 2.87 µM
TGI (UACC-257 melanoma): 8.72 µM
GI50 (UACC-62 melanoma): 4.12 µM
TGI (UACC-62 melanoma): 16.1 µM
GI50 (UO-31 renal): 3.26 µM
TGI (UO-31 renal): 17.2 µM

CCOC(=O)c1sc2nc(SC)nc3c2c1NCN3C1CC1
TGI (786-0 renal): > 100 µM
TGI (A498 renal): > 100 µM
TGI (A549 NSCLC): > 100 µM
TGI (ACHN renal): > 100 µM
TGI (BT-549 breast): > 100 µM
TGI (CAKI-1 renal): > 100 µM
TGI (CCRF-CEM leukemia): > 100 µM
TGI (COLO 205 colon): > 100 µM
TGI (DU-145 prostate): > 100 µM
TGI (HCC-2998 colon): > 100 µM
TGI (HCT-116 colon): > 100 µM
TGI (HCT-15 colon): > 100 µM
TGI (HOP-62 NSCLC): > 100 µM
TGI (HOP-92 NSCLC): > 100 µM
TGI (HS 578T breast): > 100 µM
TGI (HT29 colon): > 100 µM
TGI (IGROV1 ovarian): > 100 µM
TGI (KM12 colon): > 100 µM
TGI (LOX IMVI melanoma): > 100 µM
TGI (M14 melanoma): > 100 µM
TGI (MALME-3M melanoma): > 100 µM
TGI (MDA-MB-231 breast): > 100 µM
TGI (MDA-MB-435): > 100 µM
TGI (NCI-H226 lung): > 100 µM
TGI (NCI-H23 lung): > 100 µM
TGI (NCI-H460 lung): > 100 µM
TGI (NCI/ADR-RES ovarian): > 100 µM
TGI (OVCAR-3 ovarian): > 100 µM
TGI (OVCAR-4 ovarian): > 100 µM
TGI (OVCAR-5 ovarian): > 100 µM
TGI (OVCAR-8 ovarian): > 100 µM
TGI (PC-3 prostate): > 100 µM
TGI (RPMI-8226 leukemia): > 100 µM
TGI (RXF 393 renal): > 100 µM
TGI (SF-268 CNS): > 100 µM
TGI (SF-295 CNS): > 100 µM
TGI (SK-MEL-2 melanoma): > 100 µM
TGI (SK-MEL-28 melanoma): > 100 µM
TGI (SK-MEL-5 melanoma): > 100 µM
TGI (SK-OV-3 ovarian): > 100 µM
TGI (SN12C renal): > 100 µM
TGI (SNB-19 CNS): > 100 µM
TGI (SNB-75 CNS): > 100 µM
TGI (T-47D breast): > 100 µM
TGI (TK-10 renal): > 100 µM
TGI (U251 CNS): > 100 µM
TGI (UACC-257 melanoma): > 100 µM
TGI (UACC-62 melanoma): > 100 µM
TGI (UO-31 renal): > 100 µM
